In US12498382B2, “Biomarkers for vitiligo” (INCYTE CORPORATION, priority 2019, dated 2025):

Test system: HaCaT cells
Assay: Normalized expression of target genes in HaCaT cells stimulated with TNFα and IFNγ in presence/absence of JAK inhibitors (QuantiGene Plex)
Assay type: cell-based, human
Conditions: for MFI, normalized expression of IYK2: gene IYK2; for MFI, normalized expression of IYK2 / MFI, normalized expression of TNF / MFI, normalized expression of VEGFA: HaCaT, normalized to HPRT1, mean ± standard error; for MFI, normalized expression of TNF: gene TNF; for MFI, normalized expression of VEGFA: gene VEGFA
Method: Transformed human keratinocyte (HaCaT) cells were purchased from AddexBio (Catalog #T0020001) and cultured as outlined in Example 5. […] After 48 hours, cell culture media was removed from 24 well plates and replaced with 250 uL of media containing serial diluted drug, then incubated for 15 minutes at 37° C./5% CO2. After drug incubation, 250 uL of combinatory stimulation containing Recombinant Human Interferon gamma (R&D Systems, Catalog #285-IF-100) and Recombinant Human Tumor Necrosis Factor alpha (R&D Systems, Catalog #210-TA-020) was added to plates. The final concentration of Recombinant Human Interferon gamma and Recombinant Human Tumor Necrosis Factor alpha was 25 ng/mL of each cytokine. Cytokine stimulation added to wells containing drug brought the final concentrations for each drug treatment to 25 nM, 50 nM, 100 nM, and 200 nM. Treated plates were mixed by gentle agitation for 30 seconds then incubated for 24 hours at 37° C./5% CO2. At the end of the 24 hour incubation media was immediately removed from each plate.
RNA was isolated from HaCaT cells using the QuantiGene Plex Assay reagents and protocols (Affymetrix, Catalog #QGP-232-M18042302) according to the manufacturer's guidelines. Cells were washed with 1×DPBS then lysed by incubation with provided QuantiGene lysis buffer for 30 minutes at 50-55° C. Cell lysates were incubated for 18-24 hours at 55° C. with capture beads and probe set designed to specifically hybridize to mRNA from targets of interest. Genes included housekeeping genes (e.g., HPRT1 and GAPDH) used for the normalization of the results. After the 18-24 hour incubation signal was amplified utilizing branched DNA methodologies, according to the manufacturer's procedures (Affymetrix, Catalog #QGP-232-M18042302). After hybridization and wash steps assay plate was read on the Luminex 200 and data were expressed as Net Median Fluorescence Intensity. Data was then normalized to the Net Median Fluorescence Intensity of the housekeeping gene HPRT1 (Table 14).

[1] = TNFα+IFNγ 25 ng/mL, Drug Conc 25 nM
[2] = TNFα+IFNγ 25 ng/mL, Drug Conc 50 nM
[3] = TNFα+IFNγ 25 ng/mL, Drug Conc 100 nM
[4] = TNFα+IFNγ 25 ng/mL, Drug Conc 200 nM
[5] = TNFα (25 ng/mL) and IFNγ (25 ng/mL), 1st (lowest, likely 25 nM) of 4 drug conc
[6] = TNFα (25 ng/mL) and IFNγ (25 ng/mL), 2nd (likely 50 nM) of 4 drug conc
[7] = TNFα (25 ng/mL) and IFNγ (25 ng/mL), 3rd (likely 100 nM) of 4 drug conc
[8] = TNFα (25 ng/mL) and IFNγ (25 ng/mL), 4th (highest, likely 200 nM) of 4 drug conc
[9] = drug without TNFα/IFNγ stimulation
[10] = no stimulation, Drug Conc 200 nM

## C[C@@H](O)c1nc2cnc3ccsc3c2n1[C@H]1CC[C@H](CC#N)OC1 [Cpd D, ((2R,5S)-5-{2-[(1R)-1-hydroxyethyl]-1H-imidazo[4,5-d]thieno[3,2-b]pyridin-1-yl}tetrahydro-2H-pyran-2-yl)acetonitrile]
[1]
  AREG normalized expression MFI: 725.6 ± 33.78
  CCL17 normalized expression MFI: 3.08 ± 0.64
  CCL18 normalized expression MFI: 1.89 ± 0.28
  FLG normalized expression MFI: 71.27 ± 11.09
  IL6 normalized expression MFI: 132.28 ± 7.41
  IL8 normalized expression MFI: 398.64 ± 22.41
  IL17A normalized expression MFI: 1.05 ± 0.18
  IL22 normalized expression MFI: 1.39 ± 0.23
  IL23A normalized expression MFI: 48.01 ± 2.69
  IL31 normalized expression MFI: 1.99 ± 0.4
  ILIA normalized expression MFI: 1269.66 ± 50.59
  JAK1 normalized expression MFI: 200.4 ± 9.84
  JAK2 normalized expression MFI: 108.89 ± 3.25
  JAK3 normalized expression MFI: 0.97 ± 0.18
  LOR normalized expression MFI: 23 ± 9.47
  S100A7 normalized expression MFI: 5.37 ± 1.3
  S100A12 normalized expression MFI: 1.31 ± 0.18
  SERPINB3 normalized expression MFI: 2 ± 0.3
  SERPINB4 normalized expression MFI: 2.78 ± 0.31
  STAT1 normalized expression MFI: 3156.82 ± 244.78
  STAT3 normalized expression MFI: 1572.76 ± 65.5
  STAT4 normalized expression MFI: 5.4 ± 0.45
  STAT5A normalized expression MFI: 20.12 ± 1.29
  STAT5B normalized expression MFI: 38.56 ± 2.02
  STAT6 normalized expression MFI: 1042.76 ± 29.23
[2]
  AREG normalized expression MFI: 778.42 ± 44.28
  CCL17 normalized expression MFI: 2.71 ± 0.41
  CCL18 normalized expression MFI: 2.16 ± 0.22
  FLG normalized expression MFI: 78.47 ± 10.63
  IL6 normalized expression MFI: 137.61 ± 5.87
  IL8 normalized expression MFI: 417.47 ± 21.97
  IL17A normalized expression MFI: 1.06 ± 0.15
  IL22 normalized expression MFI: 1.4 ± 0.21
  IL23A normalized expression MFI: 56.64 ± 3.44
  IL31 normalized expression MFI: 1.82 ± 0.44
  ILIA normalized expression MFI: 1336.95 ± 50.97
  JAK1 normalized expression MFI: 210.52 ± 7.73
  JAK2 normalized expression MFI: 106.83 ± 5.94
  JAK3 normalized expression MFI: 0.99 ± 0.2
  LOR normalized expression MFI: 28.28 ± 10.86
  S100A7 normalized expression MFI: 5.94 ± 1.23
  S100A12 normalized expression MFI: 1.11 ± 0.18
  SERPINB3 normalized expression MFI: 2.54 ± 0.33
  SERPINB4 normalized expression MFI: 3.2 ± 0.53
  STAT1 normalized expression MFI: 3009.6 ± 169.64
  STAT3 normalized expression MFI: 1543.4 ± 58.65
  STAT4 normalized expression MFI: 6.1 ± 0.36
  STAT5A normalized expression MFI: 22.69 ± 1.71
  STAT5B normalized expression MFI: 40.76 ± 1.91
  STAT6 normalized expression MFI: 1046.46 ± 29.12
[3]
  AREG normalized expression MFI: 703.3 ± 37.3
  CCL17 normalized expression MFI: 2.86 ± 0.3
  CCL18 normalized expression MFI: 1.74 ± 0.26
  FLG normalized expression MFI: 69.64 ± 9.33
  IL6 normalized expression MFI: 122.46 ± 5.35
  IL8 normalized expression MFI: 410.72 ± 29.84
  IL17A normalized expression MFI: 0.84 ± 0.16
  IL22 normalized expression MFI: 1.24 ± 0.22
  IL23A normalized expression MFI: 51.42 ± 2.55
  IL31 normalized expression MFI: 1.61 ± 0.35
  ILIA normalized expression MFI: 1244.96 ± 41.03
  JAK1 normalized expression MFI: 200.25 ± 8.15
  JAK2 normalized expression MFI: 102.64 ± 3.52
  JAK3 normalized expression MFI: 1.01 ± 0.17
  LOR normalized expression MFI: 21.29 ± 9.59
  S100A7 normalized expression MFI: 4.6 ± 1.68
  S100A12 normalized expression MFI: 1.12 ± 0.15
  SERPINB3 normalized expression MFI: 2 ± 0.26
  SERPINB4 normalized expression MFI: 2.64 ± 0.3
  STAT1 normalized expression MFI: 2991.9 ± 200.56
  STAT3 normalized expression MFI: 1549.17 ± 89.41
  STAT4 normalized expression MFI: 5.83 ± 0.34
  STAT5A normalized expression MFI: 19.54 ± 1.34
  STAT5B normalized expression MFI: 40.91 ± 2.17
  STAT6 normalized expression MFI: 985.1 ± 39.79
[4]
  AREG normalized expression MFI: 713.33 ± 37.27
  CCL17 normalized expression MFI: 2.34 ± 0.4
  CCL18 normalized expression MFI: 1.57 ± 0.3
  FLG normalized expression MFI: 72.06 ± 11.85
  IL6 normalized expression MFI: 119.49 ± 4.42
  IL8 normalized expression MFI: 367.56 ± 17.81
  IL17A normalized expression MFI: 0.82 ± 0.13
  IL22 normalized expression MFI: 1.28 ± 0.2
  IL23A normalized expression MFI: 53.83 ± 3.54
  IL31 normalized expression MFI: 1.51 ± 0.36
  ILIA normalized expression MFI: 1163.14 ± 26.71
  JAK1 normalized expression MFI: 190.53 ± 7.68
  JAK2 normalized expression MFI: 92.21 ± 2.9
  JAK3 normalized expression MFI: 0.86 ± 0.16
  LOR normalized expression MFI: 17 ± 7.28
  S100A7 normalized expression MFI: 3.77 ± 0.91
  S100A12 normalized expression MFI: 0.91 ± 0.14
  SERPINB3 normalized expression MFI: 1.69 ± 0.29
  SERPINB4 normalized expression MFI: 2.33 ± 0.38
  STAT1 normalized expression MFI: 3154.11 ± 139.56
  STAT3 normalized expression MFI: 1570.19 ± 51.51
  STAT4 normalized expression MFI: 5.42 ± 0.52
  STAT5A normalized expression MFI: 18.33 ± 1.83
  STAT5B normalized expression MFI: 36.62 ± 1.7
  STAT6 normalized expression MFI: 1013.25 ± 17.15
[5]
  MFI, normalized expression of IYK2: 283.93 ± 8.16
  MFI, normalized expression of TNF: 26.07 ± 1.13
  MFI, normalized expression of VEGFA: 600.98 ± 13.99
[6]
  MFI, normalized expression of IYK2: 307.36 ± 14.87
  MFI, normalized expression of TNF: 29.31 ± 2.52
  MFI, normalized expression of VEGFA: 582.24 ± 17.89
[7]
  MFI, normalized expression of IYK2: 280.63 ± 10.46
  MFI, normalized expression of TNF: 27.59 ± 1.64
  MFI, normalized expression of VEGFA: 572.2 ± 19.67
[8]
  MFI, normalized expression of IYK2: 283.28 ± 10.88
  MFI, normalized expression of TNF: 27.63 ± 2.3
  MFI, normalized expression of VEGFA: 541.01 ± 9.94
[9]
  MFI, normalized expression of IYK2: 217.28 ± 10.09
  MFI, normalized expression of TNF: 1.59 ± 0.22
  MFI, normalized expression of VEGFA: 210.34 ± 9.72
[10]
  AREG normalized expression MFI: 251.8 ± 23.68
  CCL17 normalized expression MFI: 0.94 ± 0.14
  CCL18 normalized expression MFI: 0.95 ± 0.19
  FLG normalized expression MFI: 219.44 ± 34.83
  IL6 normalized expression MFI: 5.15 ± 0.31
  IL8 normalized expression MFI: 58.9 ± 5.89
  IL17A normalized expression MFI: 0.43 ± 0.08
  IL22 normalized expression MFI: 0.62 ± 0.11
  IL23A normalized expression MFI: 9.55 ± 1.15
  IL31 normalized expression MFI: 0.91 ± 0.23
  ILIA normalized expression MFI: 84.51 ± 7.04
  JAK1 normalized expression MFI: 171.53 ± 9.49
  JAK2 normalized expression MFI: 25.25 ± 1.04
  JAK3 normalized expression MFI: 0.53 ± 0.09
  LOR normalized expression MFI: 12.79 ± 4.84
  S100A7 normalized expression MFI: 3.69 ± 0.84
  S100A12 normalized expression MFI: 0.61 ± 0.11
  SERPINB3 normalized expression MFI: 1.5 ± 0.27
  SERPINB4 normalized expression MFI: 1.84 ± 0.42
  STAT1 normalized expression MFI: 549.79 ± 12.18
  STAT3 normalized expression MFI: 750.9 ± 27.68
  STAT4 normalized expression MFI: 3.75 ± 0.33
  STAT5A normalized expression MFI: 1.12 ± 0.19
  STAT5B normalized expression MFI: 54.64 ± 4.79
  STAT6 normalized expression MFI: 762.04 ± 9.44
